Measurements as given in ChEMBL document CHEMBL1123242, “Derivatives of 1-(1,3-benzodioxol-5-yl)-2-butanamine: representatives of a novel therapeutic class” (1986).

Assays:
Format in all cases: functional
[1] = system: Rattus norvegicus; assay: Compound was tested for hallucinogenic activity in rats at 0.69 dose(mg/kg); Number of rats selecting the LSD lever/ number of rats responding (1/8)
[2] = system: Rattus norvegicus; assay: Compound was tested for hallucinogenic activity in rats at the dose 0.17 (mg/kg)
[3] = system: Rattus norvegicus; assay: Compound was tested for hallucinogenic activity in rats at dose 1.38 (mg/kg); Number of rats selecting the LSD lever/ number of rats responding (3/8)
[4] = system: Rattus norvegicus; assay: Compound was tested for hallucinogenic activity in rats at the dose 0.34(mg/kg); Number of rats selecting the LSD lever/ number of rats responding (1/8)
[5] = system: Rattus norvegicus; assay: Compound was tested for hallucinogenic activity in rats at 2.41 dose(mg/kg); Number of rats selecting the LSD lever/ number of rats responding (8/8)
[6] = system: Rattus norvegicus; assay: Compound was tested for hallucinogenic activity in rats at the dose 0.17(mg/kg); Number of rats selecting the LSD lever/ number of rats responding (1/8)
[7] = system: Rattus norvegicus; assay: Compound was tested for hallucinogenic activity in rats at 2.07 dose(mg/kg); Number of rats selecting the LSD lever/ number of rats responding (3/8)
[8] = system: Rattus norvegicus; assay: Compound was tested for hallucinogenic activity in rats at 1.72 dose (mg/kg); Number of rats selecting the LSD lever/ number of rats responding (2/8)
[9] = system: Rattus norvegicus; assay: Compound was tested for hallucinogenic activity in rats at the dose 1.38 (mg/kg)
[10] = system: Rattus norvegicus; assay: Compound was tested for hallucinogenic activity in rats at 3.65 dose(mg/kg); 0/1, highest dose tested
[11] = system: Rattus norvegicus; assay: Compound was tested for hallucinogenic activity in rats at 0.73(mg/kg); Number of rats selecting the LSD lever/ number of rats responding (1/8)
[12] = system: Rattus norvegicus; assay: Compound was tested for hallucinogenic activity in rats at 2.92 dose(mg/kg); Number of rats selecting the LSD lever/ number of rats responding (3/8)
[13] = system: Rattus norvegicus; assay: Compound was tested for hallucinogenic activity in rats at the dose 0.37(mg/kg); Number of rats selecting the LSD lever/ number of rats responding (1/8)
[14] = system: Rattus norvegicus; assay: Compound was tested for hallucinogenic activity in rats at 1.83 dose (mg/kg); Number of rats selecting the LSD lever/ number of rats responding (1/8)
[15] = system: Rattus norvegicus; assay: Compound was tested for hallucinogenic activity in rats at the dose 0.17 mg/kg); Number of rats selecting the LSD lever/ number of rats responding (3/8)
[16] = system: Rattus norvegicus; assay: Compound was tested for hallucinogenic activity in rats at 2.19 dose(mg/kg); Number of rats selecting the LSD lever/ number of rats responding (2/8)
[17] = system: Rattus norvegicus; assay: Compound was tested for hallucinogenic activity in rats at 2.56 dose(mg/kg); Number of rats selecting the LSD lever/ number of rats responding (2/8)
[18] = system: Rattus norvegicus; assay: Compound was tested for hallucinogenic activity in rats at dose 1.46 (mg/kg); Number of rats selecting the LSD lever/ number of rats responding (1/8)
[19] = system: Rattus norvegicus; assay: Compound was tested for hallucinogenic activity in rats at the dose 0.34(mg/kg); Number of rats selecting the LSD lever/ number of rats responding (2/8)
[20] = system: Rattus norvegicus; assay: Compound was tested for hallucinogenic activity in rats at dose 1.38(mg/kg); Number of rats selecting the LSD lever/ number of rats responding (4/8)
[21] = system: Rattus norvegicus; assay: Compound was tested for hallucinogenic activity in rats at 0.69 dose(mg/kg); Number of rats selecting the LSD lever/ number of rats responding (4/8)
[22] = system: Rattus norvegicus; assay: Compound was tested for hallucinogenic activity in rats at the dose 0.17(mg/kg); Number of rats selecting the LSD lever/ number of rats responding […])
[23] = system: Rattus norvegicus; assay: Compound was tested for hallucinogenic activity in rats at 1.82 dose (mg/kg); 0/0, highest dose tested
[24] = system: Rattus norvegicus; assay: Compound was tested for hallucinogenic activity in rats at dose 1.72 (mg/kg); Number of rats selecting the LSD lever/ number of rats responding (4/8)
[25] = system: Rattus norvegicus; assay: Compound was tested for hallucinogenic activity in rats at the dose 0.73(mg/kg); Number of rats selecting the LSD lever/ number of rats responding (0/8)
[26] = system: Rattus norvegicus; assay: Compound was tested for hallucinogenic activity in rats at the dose 0.37(mg/kg); Number of rats selecting the LSD lever/ number of rats responding (0/8)
[27] = system: Rattus norvegicus; assay: Compound was tested for hallucinogenic activity in rats at 2.07 dose(mg/kg); 0/0, highest dose tested
[28] = system: Rattus norvegicus; assay: Compound was tested for hallucinogenic activity in rats at 1.95 dose(mg/kg); Number of rats selecting the LSD lever/ number of rats responding (1/7)
[29] = system: Rattus norvegicus; assay: Compound was tested for hallucinogenic activity in rats at 0.63 dose(mg/kg); Number of rats selecting the LSD lever/ number of rats responding (2/8)
[30] = system: Rattus norvegicus; assay: Compound was tested for hallucinogenic activity in rats at the dose 0.32(mg/kg); Number of rats selecting the LSD lever/ number of rats responding (2/8)
[31] = system: Rattus norvegicus; assay: Compound was tested for hallucinogenic activity in rats at 1.73 dose(mg/kg); 0/0, highest dose tested
[32] = system: Rattus norvegicus; assay: Compound was tested for hallucinogenic activity in rats at 1.62 dose(mg/kg); Number of rats selecting the LSD lever/ number of rats responding (2/6)
[33] = system: Rattus norvegicus; assay: Compound was tested for hallucinogenic activity in rats at dose 1.29(mg/kg); Number of rats selecting the LSD lever/ number of rats responding (3/8)
[34] = system: Rattus norvegicus; assay: Compound was tested for hallucinogenic activity in rats at the dose 0.16(mg/kg); Number of rats selecting the LSD lever/ number of rats responding (1/8)
[35] = system: Rattus norvegicus; assay: Compound was tested for hallucinogenic activity in rats at 2.19 dose(mg/kg); 0/1, highest dose tested
[36] = system: Rattus norvegicus; assay: Compound was tested for hallucinogenic activity in rats at 1.84 dose(mg/kg); Number of rats selecting the LSD lever/ number of rats responding (3/8)
[37] = system: Rattus norvegicus; assay: Compound was tested for hallucinogenic activity in rats at the dose 0.69(mg/kg); Number of rats selecting the LSD lever/ number of rats responding (0/8)
[38] = system: Rattus norvegicus; assay: Compound was tested for hallucinogenic activity in rats at the dose 0.34 (mg/kg); Number of rats selecting the LSD lever/ number of rats responding (2/8)
[39] = system: Rattus norvegicus; assay: Compound was tested for hallucinogenic activity in rats at 1.38 dose(mg/kg); Number of rats selecting the LSD lever/ number of rats responding (2/8)
[40] = system: Rattus norvegicus; assay: Compound was tested for hallucinogenic activity in rats at 4.14 dose (mg/kg); Number of rats selecting the LSD lever/ number of rats responding (2/8)
[41] = system: Rattus norvegicus; assay: Compound was tested for hallucinogenic activity in rats at 2.76 dose(mg/kg); Number of rats selecting the LSD lever/ number of rats responding (4/8)
[42] = system: Rattus norvegicus; assay: Compound was tested for hallucinogenic activity in rats at the dose 0.17(mg/kg); Number of rats selecting the LSD lever/ number of rats responding (2/8)
[43] = system: Rattus norvegicus; assay: Compound was tested for hallucinogenic activity in rats at 0.69 dose(mg/kg); Number of rats selecting the LSD lever/ number of rats responding (0/8)
[44] = system: Rattus norvegicus; assay: Compound was tested for hallucinogenic activity in rats at 3.45 dose (mg/kg); Number of rats selecting the LSD lever/ number of rats responding (3/8)
[45] = system: Rattus norvegicus; assay: Compound was tested for hallucinogenic activity in rats at 2.41 dose(mg/kg); Number of rats selecting the LSD lever/ number of rats responding (3/8)
[46] = system: Rattus norvegicus; assay: Compound was tested for hallucinogenic activity in rats at 1.72 dose (mg/kg); Number of rats selecting the LSD lever/ number of rats responding (2/9)
[47] = system: Rattus norvegicus; assay: Compound was tested for hallucinogenic activity in rats at 5.52 dose(mg/kg); 1/2, highest dose tested
[48] = system: Rattus norvegicus; assay: Compound was tested for hallucinogenic activity in rats at dose 1.38 (mg/kg); 1/8
[49] = system: Rattus norvegicus; assay: Compound was tested for hallucinogenic activity in rats at 2.07 dose(mg/kg); Number of rats selecting the LSD lever/ number of rats responding (3/10)

SMILES: CC[C@H](N)Cc1ccc2c(c1)OCO2
- Result [1]: 1
- ED50 [2]: 6 µmol/kg
- Result [3]: 3
- Result [4]: 1
- Result [5]: 8
- Result [6]: 1
- Result [7]: 3
- Result [8]: 2
- ED50 [9]: 1.38 mg/kg

SMILES: CC[C@H](Cc1ccc2c(c1)OCO2)NC
- Result [10]: 0
- Result [11]: 1
- Result [12]: 3
- Result [13]: 1
- Result [14]: 1
- Result [15]: 3
- Result [16]: 2
- Result [17]: 2
- Result [18]: 1

SMILES: CN[C@@H](C)Cc1ccc2c(c1)OCO2
- Result [19]: 2
- Result [20]: 4
- Result [21]: 4
- Result [22]: 2
- Result [23]: 0
- Result [24]: 4

SMILES: CCC(Cc1ccc2c(c1)OCO2)NC (racemic)
- Result [25]: 0
- Result [26]: 0
- Result [27]: 0
- Result [28]: 1

SMILES: C[C@H](N)Cc1ccc2c(c1)OCO2
- Result [29]: 2
- Result [30]: 2
- Result [31]: 0
- Result [32]: 2
- Result [33]: 3
- Result [34]: 1

SMILES: CNC(C)Cc1ccc2c(c1)OCO2 (racemic) [MIDOMAFETAMINE]
- Result [35]: 0
- Result [36]: 3
- Result [37]: 0
- Result [38]: 2
- Result [39]: 2

SMILES: CC[C@@H](N)Cc1ccc2c(c1)OCO2
- Result [40]: 2
- Result [41]: 4
- Result [19]: 2
- Result [42]: 2
- Result [43]: 0
- Result [44]: 3
- Result [45]: 3
- Result [46]: 2
- Result [47]: 1
- Result [48]: 1
- Result [49]: 3
